Measured values taken from PubChem BioAssay (NCI).
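Cells were grown in 96-well plates and exposed to each compound for 48 hours at five concentrations; endpoints were interpolated linearly between bracketing concentrations, or set to the highest concentration if not reached. Here, GI50 denotes the concentration required for 50% inhibition of growth. TGI: concentration producing complete growth inhibition.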

Legend:
Assay in all cases: growth of human tumour cells (NCI), 48 h
[1] = tested on: 786-0 renal
[2] = tested on: A498 renal
[3] = tested on: A549 NSCLC
[4] = tested on: ACHN renal
[5] = tested on: BT-549 breast
[6] = tested on: CAKI-1 renal
[7] = tested on: DU-145 prostate
[8] = tested on: EKVX NSCLC
[9] = tested on: HCC-2998 colon
[10] = tested on: HCT-116 colon
[11] = tested on: HCT-15 colon
[12] = tested on: HOP-62 NSCLC
[13] = tested on: HOP-92 NSCLC
[14] = tested on: HS 578T breast
[15] = tested on: HT29 colon
[16] = tested on: IGROV1 ovarian
[17] = tested on: K-562 leukemia
[18] = tested on: KM12 colon
[19] = tested on: M14 melanoma
[20] = tested on: MALME-3M melanoma
[21] = tested on: MCF7 breast
[22] = tested on: MDA-MB-231 breast
[23] = tested on: MDA-MB-435
[24] = tested on: MOLT-4 leukemia
[25] = tested on: NCI-H226 lung
[26] = tested on: NCI-H23 lung
[27] = tested on: NCI-H460 lung
[28] = tested on: NCI-H522 lung
[29] = tested on: NCI/ADR-RES ovarian
[30] = tested on: OVCAR-3 ovarian
[31] = tested on: OVCAR-4 ovarian
[32] = tested on: OVCAR-5 ovarian
[33] = tested on: OVCAR-8 ovarian
[34] = tested on: PC-3 prostate
[35] = tested on: RXF 393 renal
[36] = tested on: SF-268 CNS
[37] = tested on: SF-295 CNS
[38] = tested on: SF-539 CNS
[39] = tested on: SK-MEL-2 melanoma
[40] = tested on: SK-MEL-28 melanoma
[41] = tested on: SK-MEL-5 melanoma
[42] = tested on: SK-OV-3 ovarian
[43] = tested on: SN12C renal
[44] = tested on: SNB-19 CNS
[45] = tested on: SNB-75 CNS
[46] = tested on: SW-620 colon
[47] = tested on: T-47D breast
[48] = tested on: TK-10 renal
[49] = tested on: U251 CNS
[50] = tested on: UACC-257 melanoma
[51] = tested on: UACC-62 melanoma
[52] = tested on: UO-31 renal

SMILES: C=C(C)[C@@H]1CC[C@]2(C(=O)O)CC[C@]3(C)[C@H](CC[C@@H]4[C@@]5(C)C/C(=C/c6ccc(OC)cc6)C(=O)C(C)(C)[C@@H]5CC[C@]43C)[C@@H]12
- GI50 [1]: 2.83 µM
- TGI [1]: 12.1 µM
- GI50 [2]: 2.28 µM
- TGI [2]: 8.47 µM
- GI50 [3]: 1.3 µM
- TGI [3]: 4.56 µM
- GI50 [4]: 2.77 µM
- TGI [4]: 10.5 µM
- GI50 [5]: 1.89 µM
- TGI [5]: 4.34 µM
- GI50 [6]: 2.16 µM
- TGI [6]: 11.5 µM
- GI50 [7]: 3.09 µM
- TGI [7]: 15.3 µM
- GI50 [8]: 2.36 µM
- TGI [8]: 10.5 µM
- GI50 [9]: 2.1 µM
- TGI [9]: 5.73 µM
- GI50 [10]: 1.62 µM
- TGI [10]: 3.82 µM
- GI50 [11]: 1.79 µM
- TGI [11]: 4.4 µM
- GI50 [12]: 2.24 µM
- TGI [12]: 7.51 µM
- GI50 [13]: 0.738 µM
- TGI [13]: 3.36 µM
- GI50 [14]: 2.65 µM
- TGI [14]: 9.03 µM
- GI50 [15]: 3.09 µM
- TGI [15]: 10.2 µM
- GI50 [16]: 2.15 µM
- TGI [16]: 7.3 µM
- GI50 [17]: 2.21 µM
- TGI [17]: > 100 µM
- GI50 [18]: 1.71 µM
- TGI [18]: 4.12 µM
- GI50 [19]: 1.67 µM
- TGI [19]: 3.9 µM
- GI50 [20]: 1.84 µM
- TGI [20]: 4.29 µM
- GI50 [21]: 2.59 µM
- TGI [21]: 7.74 µM
- GI50 [22]: 2.32 µM
- TGI [22]: 7.78 µM
- GI50 [23]: 1.84 µM
- TGI [23]: 4.02 µM
- GI50 [24]: 2.97 µM
- TGI [24]: > 100 µM
- GI50 [25]: 1.85 µM
- TGI [25]: 4.3 µM
- GI50 [26]: 2.44 µM
- TGI [26]: 8.25 µM
- GI50 [27]: 1.82 µM
- TGI [27]: 3.92 µM
- GI50 [28]: 1.97 µM
- TGI [28]: 6.65 µM
- GI50 [29]: 2.84 µM
- TGI [29]: 13.3 µM
- GI50 [30]: 1.69 µM
- TGI [30]: 3.23 µM
- GI50 [31]: 2.5 µM
- TGI [31]: 11.2 µM
- GI50 [32]: 3.2 µM
- TGI [32]: 12 µM
- GI50 [33]: 3.16 µM
- TGI [33]: 33.1 µM
- GI50 [34]: 1.74 µM
- TGI [34]: 8.24 µM
- GI50 [35]: 2.1 µM
- TGI [35]: 5.26 µM
- GI50 [36]: 2.85 µM
- TGI [36]: 17.4 µM
- GI50 [37]: 1.71 µM
- TGI [37]: 4.45 µM
- GI50 [38]: 1.94 µM
- TGI [38]: 4.16 µM
- GI50 [39]: 2.38 µM
- TGI [39]: 6.29 µM
- GI50 [40]: 1.91 µM
- TGI [40]: 3.72 µM
- GI50 [41]: 2.03 µM
- TGI [41]: 4.12 µM
- GI50 [42]: 3.29 µM
- TGI [42]: 16.1 µM
- GI50 [43]: 2.07 µM
- TGI [43]: 5.9 µM
- GI50 [44]: 3.07 µM
- TGI [44]: 17 µM
- GI50 [45]: 2.68 µM
- TGI [45]: 27.1 µM
- GI50 [46]: 1.95 µM
- TGI [46]: 4.61 µM
- GI50 [47]: 2.84 µM
- TGI [47]: 26.7 µM
- GI50 [48]: 2.6 µM
- TGI [48]: 20.7 µM
- GI50 [49]: 1.86 µM
- TGI [49]: 5.68 µM
- GI50 [50]: 2.1 µM
- TGI [50]: 6.93 µM
- GI50 [51]: 1.44 µM
- TGI [51]: 3.13 µM
- GI50 [52]: 1.45 µM
- TGI [52]: 4.42 µM
